{"source": "patent US20230192764A1", "about": "“NOVEL DOPAMINE PRECURSORS” (Yissum Research Development Company of the Hebrew …, priority 2018, published 2023)", "key": {"[1]": {"test_system": "JNK phosphorylation", "assay": "AuF-induced phosphorylation of JNK in SH-SY5Y cells, western blot", "assay_type": "cell-based, human", "description": "SH-SY5Y cells were treated with 10 µM AuF with or without SD-444. Phosphorylation was determined by western blot analysis. The amount of each band was quantitated by densitometry and plotted with a linear regression program normalized to total JNK.\n(§1) In the assay, twenty to thirty micrograms of protein samples were loaded on 10-12% SDS-PAGE gels. The proteins were then transferred electrophoretically to nitrocellulose (Whatman, Germany). The blots were blocked by incubation for 1 h at RT in TBS-T (25 mM Tris-HCl pH 7.4, 0.9% NaCl and 0.02% Tween-20) with 4% Difco skim milk (BD, USA), and incubated over-night at 4° C. with the primary antibody: p-p38^MAPK (Thr180/Tyr182), rabbit mAb; p38, rabbit Ab.\nas §1, with “1h” for “1 h”, “p-JNK^MAPK, and β-catenin.” for “p-p38^MAPK (Thr180/Tyr182), rabbit mAb; p38, rabbit Ab.”"}, "[2]": {"test_system": "ERK1/2 phosphorylation", "assay": "AuF-induced phosphorylation of ERK1/2 in PC12 cells, western blot", "assay_type": "cell-based", "conditions": "10 µM AuF, normalized to total ERK2, read-out: EC50, lowering of AuF induced activation of ERK1/2", "description": "Cells were treated with 10 µM AuF with or without SDA-341. Phosphorylation was determined by western blot analysis (FIG. 6A). The amount of each band was quantitated by densitometry (FIG. 6B) and plotted with a linear regression program normalized to total ERK2 (FIG. 6C).\nThe ability of SDA-341 to lower AuF induced activation of ERK1/2 in PC12 cells with the corresponding anti ERK1/2 and ERK2 antibodies was also tested, as shown in FIG. 6. Calculated EC50=80µM."}}}
{"smiles": "CC(=O)NC(CS)C(=O)NC(Cc1cccc(O)c1O)C(N)=O", "note": "(stereo not drawn) [SDA-341, Acetyle-Cys-2,3 dihydroxyphenylalanine-amide]", "values": [{"measurement": "EC50", "setting": "[1]; 10 µM AuF, western blot densitometry, read-out: EC50 in reduction of JNK activation", "result": 100, "unit": "µM"}, {"measurement": "JNK phosphorylation (AuF-triggered)", "setting": "[1]; summary statement", "result": "inhibit"}, {"measurement": "EC50", "setting": "[2]", "result": 80, "unit": "µM"}]}
